Marks after values point to notes of the source that are not given here.
Columns and labels:
remnant kidney (RK) rats [1] = assay: Proteinuria in remnant kidney rats; type: in vivo, Male Wistar rats
Experimental: (§1) Male Wistar rats (295-340 g) were used to produce rats with remnant kidney (RK) as follows. […] Rats were then assigned to one of four treatment groups: Group 1, RK control rats (n=7); Group 2, RK+febuxostat (Fx) rats (n=8); Group 3, RK+oxonic acid (OA) rats (n=6); and Group 4, RK+OA+Fx (n=10). Oxonic acid (OA) (Sigma-Aldrich, St Louis Mo., USA), administered at 750 mg/kg body weight daily by oral gavage, was given starting the day after the ⅚ nephrectomy. […] Body weight (beginning just before surgery) and food and water intakes were measured daily. Systolic blood pressure, measured in conscious rats by a tail cuff sphygmomanometer, and plasma uric acid (UA) levels were measured at just before surgery (namely, at baseline) and at the end of the four weeks. Proteinuria was measured at baseline and at the end of two and four weeks. […] Food and water intake were determined daily. Systolic blood pressure (SBP) was measured by a tail-cuff sphygmomanometer using an automated system (XBP-100; Kent Scientific Co, Torrington, Conn., USA) in conscious animals. […] Plasma uric acid was quantified using a commercial kit (Diagnostic Chemicals Ltd, Charlottetown, PEI, Canada). […]

[2] = system: Mice of the species/strain B6C3F1; assay: Histopathological examination of the kidney after 13 weeks of oral gavage dosing; type: in vivo; conditions: for Vacuolar Degeneration of Renal Proximal Tubules (number of animals): 12 animals examined, 13 weeks
Experimental: Mice of the species/strain B6C3F1 of an initial age of 6 weeks were dosed via oral gavage with febuxostat suspended in 0.5% methyl cellulose. The daily dose administered was either 0 mg (i.e., the control group), 3 mg, 12 mg, 24 mg, or 48 mg. Histopathological examination of the kidney was carried out after 13-weeks of dosing for vacuolar degeneration of renal proximal tubules (a known naturally occurring change in rodents).

remnant kidney (RK) rats [3] = assay: Systolic blood pressure by tail cuff in conscious remnant kidney rats; type: in vivo, Male Wistar rats; conditions: all four groups, after four weeks; corroborated by mean arterial pressure under anesthesia
Experimental: as §1

For `Cc1nc(-c2ccc(OCC(C)C)c(C#N)c2)sc1C(=O)O` [febuxostat, 2-[3-cyano-4-(2-methylpropoxy)phenyl]-4-methylthiazole-5-carboxylic acid], the “Rise of urinary protein excretion (in words)” value (remnant kidney (RK) rats [1]; RK rats with and without hyperuricemia) was “prevented the rise of urinary protein excretion”, the “Urinary protein excretion, lower than the values in the respective control groups” value (remnant kidney (RK) rats [1]; RK+Fx and RK+OA+Fx rats, end of Week 4) was 75-80% and the “Vacuolar Degeneration of Renal Proximal Tubules (number of animals)” value (“Vacuolar Degeneration … (number of animals)” for short) ([2]; Daily Dose 3, Female) was 1. For the same molecule, the “Vacuolar Degeneration … (number of animals)” value ([2]; Daily Dose 3, Male) was 7*, the “Vacuolar Degeneration … (number of animals)” value ([2]; Daily Dose 12, Female) was 1 and the “Vacuolar Degeneration … (number of animals)” value ([2]; Daily Dose 12, Male) was 5**. The “Vacuolar Degeneration … (number of animals)” value ([2]; Daily Dose 24, Female) was 0, the “Vacuolar Degeneration … (number of animals)” value ([2]; Daily Dose 24, Male) was 2** and the “Vacuolar Degeneration … (number of animals)” value ([2]; Daily Dose 48, Female) was 2. For the same molecule, the “Vacuolar Degeneration … (number of animals)” value ([2]; Daily Dose 48, Male) was 1**, the “Vacuolar degeneration of the renal proximal tubules (in words)” value ([2]; male animals) was “reduced the amount of vacuolar degeneration of the renal proximal tubules in a statistically significant fashion” and the “Systolic blood pressure (in words)” value (remnant kidney (RK) rats [3]) was “developed systemic hypertension to approximately the same degree”.

From patent US20130143886A1, “METHODS FOR PRESERVING AND/OR INCREASING RENAL FUNCTION USING XANTHINE OXIDOREDUCTASE INHIBITORS” (priority 2006, published 2013)
